Reference: paper PMC3852005, “Crystal Structures of the Human G3BP1 NTF2-Like Domain Visualize FxFG Nup Repeat Specificity” (PLoS ONE, 2013)
Where no end group is shown, it is not given here.

T1: G3BP2a NTF2-like domain (G3BP2a 1–139) (Homo sapiens, UniProt Q9UN86)
T1 construct: His6 (thrombin-cleavable) (N, cleaved yes); made in house; host or cells: Escherichia coli BL21(DE3)
T1 sequence (Q9UN86 1-139): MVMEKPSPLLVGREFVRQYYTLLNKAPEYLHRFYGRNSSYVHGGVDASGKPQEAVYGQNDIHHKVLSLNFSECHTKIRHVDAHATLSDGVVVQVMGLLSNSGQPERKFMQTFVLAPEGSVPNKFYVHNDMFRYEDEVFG

T2: FxFG Nup repeat peptide (also: chloride salt)
T2 chain: DSGFSFGSK


Columns and labels:
[1] = target: T1, G3BP2a NTF2-like domain (G3BP2a 1–139); assay: ITC, Nup peptide binding to G3BP2a NTF2-like domain (1–139); conditions: 0.1 M NaCl and 0.1 M HEPES, pH 8, 25°C, repeated three times; for heat changes on titration (ITC): titration of peptide into G3BP2a 1–139 (data not shown), ITC200, aliquots of 2 µL peptide (5.2 mM)
Procedure: (§1) The three synthetic peptides, GQSPGFGQGGSV (referred to as FG), DSGGLFGSK (GLFG) and DSGFSFGSK (FxFG), were obtained as more than 98% pure lyophilized chloride salts from Caslo Laboratory ApS, Denmark.
(§2) ITC measurements for the wild type NTF2-like domain were performed with an ITC200 titration calorimeter (MicroCal). Data analysis was done using the Origin software. Protein samples were dialyzed against 0.1 M NaCl and 0.1 M HEPES, pH 8, and passed through 0.22 µm centrifugal filter units (Millipore) before the experiments. Peptides were solubilized in the dialysis buffer and the pH adjusted before filtration. In each experiment, aliquots of 2 µL peptide (5.2 mM) were injected into the sample cell every 180 seconds at 25°C. Background measurements were performed with buffer injected into the protein solution and peptides injected into the buffer solution. The concentrations of the peptides were determined by amino acid analysis (Department of Systems Biology, DTU, Denmark). Experiments were repeated three times and the results given as mean ± standard deviation.

[2] = target: T3, human G3BP1 NTF2-like domain (G3BP1 1–139) (Homo sapiens, UniProt Q13283); assay: ITC, Nup peptide binding to G3BP1 NTF2-like domain (1–139); conditions: 0.1 M NaCl and 0.1 M HEPES, pH 8, 25°C, repeated three times; for heat changes on titration (ITC): titration of peptide into G3BP1 1–139, ITC200, aliquots of 2 µL peptide (5.2 mM)
T3 construct: His6 (thrombin-cleavable) (N, cleaved yes); made in house; host or cells: Escherichia coli BL21(DE3)
Procedure: as §1, §2

[3] = target: T4, G3BP1 1–139 Phe15Ala mutant (Homo sapiens, UniProt Q13283, F15A); assay: ITC, FxFG peptide binding to G3BP1 1–139 Phe15Ala mutant; conditions: ITC (VP-ITC), 0.1 M NaCl and 0.1 M HEPES, pH 8, 20°C, aliquots of 15 µL peptide (4.1 mM) every 360 seconds, single experiment
T4 construct: The expression vector for the G3BP1 1–139 Phe15Ala mutant was produced by GenScript Inc. (USA); His6 (thrombin-cleavable) (N, cleaved yes); made in house; host or cells: Escherichia coli BL21(DE3)
Procedure: as §1
Data for the Phe15Ala G3BP1 mutant were collected in a single experiment on a VP-ITC (MicroCal) instrument using buffer conditions as for the wildtype. Aliquots of 15 µL peptide (4.1 mM) were injected into the protein sample every 360 seconds at 20°C.

FxFG Nup repeat peptide = target: T2, FxFG Nup repeat peptide; assay: ITC

T3 sequence (Q13283 1-139): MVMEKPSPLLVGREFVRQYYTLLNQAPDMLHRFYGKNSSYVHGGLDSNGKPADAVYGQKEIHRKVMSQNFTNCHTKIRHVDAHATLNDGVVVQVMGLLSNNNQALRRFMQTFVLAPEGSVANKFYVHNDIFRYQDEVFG
T4 sequence (Q13283 1-139 F15A): as the sequence (Q13283 1-139) above, with F15A counted along it

Molecule	heat changes on titration (ITC) [1]	heat changes on titration (ITC) [2]	further results
DSGFSFGSK [FxFG, DSGFSFGSK]	–	–	Kd ([1]; ITC (ITC200), G3BP2a NTF2-like domain, aliquots of 2 µL peptide (5.2 mM) every 180 seconds, mean ± standard deviation, data not shown): 114 ± 2 µM; Kd ([2]; ITC (ITC200), G3BP1 1–139, aliquots of 2 µL peptide (5.2 mM) every 180 seconds, one-binding-site per chain model, mean ± standard deviation): 115 ± 3 µM; Kd [3]: 670 µM
DSGGLFGSK [synthetic nucleoporin GLFG repeat peptide, more than 98% pure, from Caslo Laboratory]	did not result in significant heat changes	did not result in significant heat changes	–
GQSPGFGQGGSV [synthetic nucleoporin FG repeat peptide, more than 98% pure, from Caslo Laboratory]	did not result in significant heat changes	did not result in significant heat changes	–
G3BP2a NTF2-like domain 1-139 (protein) MVMEKPSPLLVGREFVRQYYTLLNKAPEYLHRFYGRNSSYVHGGVDASGKPQEAVYGQNDIHHKVLSLNFSECHTKIRHVDAHATLSDGVVVQVMGLLSNSGQPERKFMQTFVLAPEGSVPNKFYVHNDMFRYEDEVFG	–	–	Kd (FxFG Nup repeat peptide): 114 µM
